The METLIN SMRT retention time set (Domingo-Almenara et al. 2019)

Experiment: gradient 5% acetonitrile 3 min, to 50% in 2 min, to 85% in 15 min, held 3 min, 100 µL/min
Conditions: column: Zorbax Extend-C18 2.1 x 50 mm; eluents: water / acetonitrile, 0.1% formic acid
How it was run: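 Each retention time is based on an adduct peak selected computationally and verified by manual inspection. Measurements used HPLC–quadrupole time-of-flight mass spectrometry in positive and negative ionization mode on mixtures of ~100 pure standards. Chromatography ran on a Zorbax Extend-C18 column (2.1 × 50 mm, 1.8 μm) at 100 μL/min with water and acetonitrile, each containing 0.1% formic acid, and dead and dwell volumes of 40 μL and 900 μL.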

RP-LC retention time	SMILES
846 s	COc1ccc(-c2cn3c(CC(=O)Nc4ccc(C(F)(F)F)cc4)csc3n2)cc1OC
734 s	O=C(NCC1CCOCC1)Nc1ccc(C(F)(F)F)cc1
1080 s	CCCN1C(=O)c2cc(S(=O)(=O)Nc3ccc(C)cc3F)ccc2Oc2cccnc21
762 s	COc1ccc(CNC(=O)Cn2nc3c(N4CCSCC4)nccn3c2=O)cc1
854 s	CCCNC(=O)N1N=C(c2ccc(N)cc2)c2cc3c(cc2C1C)OCO3 (stereo not given)
755 s	CC1CN(Cc2nc3c(c(=O)n(C)c(=O)n3C)n2Cc2ccc(Br)cc2)CC(C)O1 (stereo not given)
578 s	CC(C)c1nnc(C2CN(C)CC23CCN(Cc2cccc(C(F)(F)F)c2)CC3)o1 (stereo not given)
916 s	Cc1ccc(CNC(=O)CN2C(=O)CCc3cc(S(=O)(=O)N4CCCCC4C)ccc32)cc1 (stereo not given)
585 s	CS(=O)(=O)N1CCCc2cc(C(=O)NCCCN3CCOCC3)ccc21
723 s	CC(=O)N1CCc2cc(C(=O)N3CCCCCC3)ccc21
776 s	CNS(=O)(=O)CCCOc1cccc2c1OC(C)(C)C2
918 s	COc1cccc(OCC2c3ccsc3CCN2C(=O)CN(C(=O)NC(C)C)C2CC2)c1 (stereo not given)
1230 s	Fc1cccc(-c2noc(-c3ccc(N4CCN(c5ncccn5)CC4)nc3)n2)c1
760 s	COc1cc(=O)n2c(c1C(=O)Nc1cccc(Br)c1)CCCC2
590 s	COc1ccc(C(=O)Nc2nccnc2C(=O)NCCN2CCCCC2)cc1
883 s	O=C(NC1CCCCCC1)c1nc(-c2ccnc(N3CCCCC3)c2)no1
666 s	COc1ccc(OC)c(S(=O)(=O)N2CC(N3CC(C(=O)N4CCCC4)CC3=O)C2)c1 (stereo not given)
704 s	CCN(C(=O)Cn1c(C(C)NC(=O)c2ccco2)nc2ccccc21)c1ccccc1 (stereo not given)
564 s	Cc1ccc(C(=O)N2CCc3[nH]cnc3C23CCCC3)c(C)c1
751 s	CCN1CCCn2nc(C3CCN(C(=O)COc4cccc(Cl)c4)CC3)cc2C1=O
688 s	O=C(Nc1cccc(-c2ccc(N3CCOCC3)nn2)c1)Nc1ccccc1F
709 s	CCOc1ccc(S(=O)(=O)N2CCC(C(=O)NCCOC)CC2)cc1
863 s	Cc1nc(CC(=O)Nc2nc(-c3ccc(F)cc3)cs2)cs1

RP-LC retention time	SMILES
727 s	Cn1nc(C(=O)N2CCN(c3ccccc3Cl)CC2)ccc1=O
1030 s	Cc1ccc(OCc2nc(C3CN(C(=O)C4(c5ccccc5)CC4)C3)no2)cc1
644 s	CN(Cc1nc2cc(C(=O)N3CCCC3)ccc2n1C)C(=O)Nc1ccccc1Br
900 s	Cc1ccc2c(c1)N(S(C)(=O)=O)CCC(C(=O)NC(C)c1ccccc1)O2 (stereo not given)
624 s	CCOc1cc2c(cc1OCC)C1C(C(=O)NCCCN3CCCC3)c3ccccc3C(=O)N1CC2 (stereo not given)
842 s	CCN1C(=O)COc2ccc(-c3noc(C4CC(=O)N(c5ccc(OC)cc5)C4)n3)cc21 (stereo not given)
700 s	CSc1cccc(NC(=O)C2CCN(c3nccc(C)n3)CC2)c1
661 s	CCC1CCCCN1CCCNC(=O)c1cc(S(=O)(=O)N2CCCC2)ccc1Cl (stereo not given)
696 s	Cc1cc(N2CCN(C(=O)CCCc3c[nH]c4ccccc34)CC2)nc2ccccc12
833 s	CCOc1ccccc1-c1noc(-c2cn(C)c3ccc(F)cc3c2=O)n1
630 s	CN1CCN(CCCNC(=O)C2CCN(C(=O)c3ccc(-n4ccc5ccccc54)s3)CC2)CC1
805 s	O=C(C1CC1)N1CCc2sc(S(=O)(=O)NCc3cccc(F)c3)cc2C1
840 s	CSc1ccc(-c2nc3cc(C)ccn3c2Nc2ccc(Cl)cc2)cc1
722 s	O=C(Nc1ccc(F)cc1)N1CCC(N2CCN(Cc3cccc(F)c3)C(=O)C2=O)CC1
846 s	O=S(=O)(c1ccc2c(c1)CCC2)N1CCC(Cc2nncn2-c2ccccc2)C1 (stereo not given)
1050 s	O=C(Cc1cccs1)N1CCCC(c2ccnc(-c3ccc(F)cc3)n2)C1 (stereo not given)
665 s	O=C(Cn1cnc2nc(N3CCCC(C(=O)NC4CC4)C3)sc2c1=O)Nc1cccc(Cl)c1 (stereo not given)
641 s	O=C(NCC1CCCO1)c1nc(-c2ccnc(N3CCCCCC3)c2)no1 (stereo not given)
882 s	CCn1nc(C)n2cc(S(=O)(=O)NCc3cccc(C)c3)cc2c1=O
727 s	CN(C)CCn1nnc2cc(-c3noc(-c4ccc(Br)cc4)n3)ccc21
742 s	CC(C)c1noc(-c2cccnc2N2CCCN(Cc3cccc(Cl)c3)CC2)n1
650 s	CC1CCc2onc(C(=O)N3CCN(c4ccccn4)CC3)c2C1 (stereo not given)
625 s	O=C(Nc1ccccc1Cl)N1CCN(c2cnn3cnnc3c2)CC1

RP-LC retention time	SMILES
1040 s	Cc1cc(C(=O)Nc2nc(-c3nc4ccccc4s3)cs2)c(C)o1
573 s	CCNC(=O)c1c2c(nc3ccccc13)CCC2
824 s	CC(C)c1c(C2CCN(C(=O)c3cc4ccccc4[nH]3)CC2)noc1N
780 s	CCOC(=O)c1c(S(=O)(=O)N2CCC(C(=O)Nc3nc(C)cs3)CC2)c(C)n(C)c1C
609 s	CC(C)Cn1c(=O)c(C(=O)NCc2cccc(F)c2)nc2cccnc21
849 s	Cc1noc(-c2ccnc(-n3cnc(C(=O)NCCC(C)C)c3)c2)n1
646 s	Cc1nc(-c2noc(-c3cccnc3)n2)cn1CC(=O)NC1CCCC1
1200 s	O=S(=O)(c1ccc(-c2noc(-c3ccccc3Cl)n2)cc1)N1CCCC1
796 s	CC(C)NC(=O)C1CCN(c2nc3ccc(-c4ccsc4)nc3s2)CC1
676 s	OCCNCc1ccc(-c2cc(Cl)cc(Cl)c2)o1
779 s	Cc1nc(C)c(-c2ccc(SCC(=O)N3CCCc4ccccc43)nn2)s1
809 s	c1cnc(N2CCN(c3nc4ccccc4s3)CC2)nc1
800 s	Cc1cc(C)c(C(=O)N2CCC(CC(=O)NCc3ccc(Cl)cc3)CC2)[nH]1
910 s	COc1ccc(-n2ncc3c(=O)n(Cc4nc(-c5ccc(OC)c(OC)c5)no4)cnc32)cc1
1040 s	Cn1cc(-c2nc(C(=O)NC3CCCCCC3)cs2)c2cccnc21
860 s	O=C(Nc1ccc(F)cc1)N1CCN(Cc2nc3cc(-c4ccccc4)ccc3o2)CC1
553 s	CC(C)NC(=O)c1cc(-c2ccncc2)n[nH]1
915 s	CC1=C(c2ccc(C)c(C)c2)S(=O)(=O)N=C1N1CCCN(C(=O)CC(C)C)CC1
688 s	COCCCNC(=O)CCCn1c2ccccc2c2cnn(C)c(=O)c21
1110 s	COc1cc(OC)c(NC(=O)Cn2cccc2-c2nc(-c3ccc4c(c3)OCO4)no2)cc1Cl
611 s	O=C(Nc1ccc(C(=O)N2CCN(c3ccccn3)CC2)cc1)C1=CSCCO1
650 s	OCCN1CCN(c2ncnc3c2cnn3-c2ccc(Cl)cc2)CC1
627 s	Cn1c(=O)n(CCN2CCOCC2)c(=O)c2c1nc1n2CCCN1C1CCCCC1

RP-LC retention time	SMILES
668 s	O=C(Nc1cccc(-c2cn3cccnc3n2)c1)c1c(F)cccc1F
634 s	CCCN(CCC#N)C(=O)CN1CC2=C(C1=O)C(c1ccccc1Cl)NC(=O)N2C (stereo not given)
691 s	O=C(CN1CCc2[nH]c3c(F)c(Cl)ccc3c(=O)c2C1)Nc1cc(F)ccc1F
934 s	Cc1nc(-c2cc3ccccc3nc2N2CCN(C(=O)Cc3ccccc3)CC2)no1
1260 s	O=C1Cc2c(-c3ccccc3)cc(-c3cccc(Cl)c3)nc2-c2ccccc2N1
683 s	CC1CCc2[nH]nc(C(=O)NC3CC3)c2C1 (stereo not given)
861 s	COc1ccc(S(=O)(=O)NCc2ccc3c(c2)CCN3C(=O)C(C)C)cc1
756 s	CCCN1C(=O)CCc2cc(NC(=O)c3ccn(CC)n3)ccc21
717 s	CC(=O)c1ccc(NC(=O)CN2C(=O)NC3(CCCCC3)C2=O)cc1
677 s	CC(C)(C)c1cnc(CSc2cnc(NC(=O)C3CCNCC3)s2)o1
965 s	Cc1cccc(-c2nocc2CCC(=O)NC(C)c2ccc(F)cc2)c1 (stereo not given)
703 s	O=C(CSCc1ccccc1)NCC1CCN(c2ncccn2)CC1
832 s	COc1ccc(C(=O)N2CCC3(CC2)N=C(c2cccc(Br)c2)NO3)c(OC)c1
1230 s	Cc1noc(C)c1S(=O)(=O)Nc1cccc(-c2nc(-c3cccc(Br)c3)co2)c1
604 s	Cc1noc([C@@H]2CN(Cc3ccccc3C(F)(F)F)C[C@H]2CO)n1
760 s	CCNC(=O)C1CCN(c2cc(SCC(=O)Nc3ccccc3OCC)ncn2)CC1
782 s	CCc1ccccc1NC(=O)C1CCCN(S(=O)(=O)c2cn(C(C)C)cn2)C1 (stereo not given)
748 s	Cc1ccc(S(=O)(=O)N2CCC(C(=O)NCc3cscn3)CC2)cc1C
883 s	CC1=C(c2ccc(F)cc2)S(=O)(=O)N=C1N1CCCN(C(=O)C2CCCCC2)CC1
788 s	CS(=O)(=O)Nc1ccc(-c2noc(CNC(=O)Cc3ccc(Cl)cc3)n2)cc1
871 s	Cc1cc(OCC(=O)NCc2ccccc2Br)nc(N2CCN(c3ccccc3)CC2)n1
